Data published in ChEMBL document CHEMBL2169754, “Imidazo[1,2-a]pyridines That Directly Interact with Hepatitis C NS4B: Initial Preclinical Characterization” (ACS Med Chem Lett, 2012).
pEC50, pIC50: −log10 of the molar value.

How the values were obtained:
[1] = system: Hepatitis C virus; assay: Antiviral activity against wild type HCV genotype 1a infected in human HuH7 cells after 48 hrs by luciferase reporter gene assay; format: functional, organism-based, Hepacivirus hominis; conditions: subtype 1a, Huh-7, 48 h
[2] = system: Hepatitis C virus; assay: Displacement of [3H]-3-(1-(3-chloro-6-isopropyl-8-(trifluoromethyl)imidazo[1,2-a]pyridine-2-carbonyl)piperidin-4-yl)oxazolidin-2-one from HCV genotype 1b His6-tagged NS4B expressed in baculovirus infected Sf9 cells after overnight incubation; design: species or system Hepatitis C virus subtype 1b
[3] = system: Hepatitis C virus; assay: Antiviral activity against wild type HCV genotype 1b infected in human HuH7 cells after 48 hrs by luciferase reporter gene assay; format: functional, organism-based, Hepacivirus hominis; conditions: Huh-7, 48 h
[4] = Solubility of the compound; format: physicochemical
[5] = system: Hepatocyte; assay: Drug metabolism in human hepatocytes assessed as pendant cyclohexyl oxidation; format: ADME, cell-based
[6] = system: Hepatocyte; assay: Drug metabolism in rat hepatocytes assessed as pendant cyclohexyl oxidation; format: ADME, cell-based

Row | Compound | pEC50 [1] | pIC50 [2] | pEC50 [3] | solubility [4] [µM] | Drug metabolism [5] | Drug metabolism [6]
1 | CC1(C)COC(=O)N1C1CCN(C(=O)c2nc3c(C(F)(F)F)cc(-c4ccoc4)cn3c2Cl)CC1 | 4.48 | 5.05 | 4.51 | > 500 | – | –
2 | O=C(c1nc2c(C(F)(F)F)cc(-c3ccoc3)cn2c1Cl)N1CCC(c2cccs2)C1 (racemic) | 6.11 | 7.92 | 7.17 | < 15 | – | –
3 | O=C(c1nc2c(C(F)(F)F)cc(-c3ccoc3)cn2c1Cl)N1CCC(c2ccncc2)C1 (racemic) | 6.42 | 7.60 | 6.57 | – | – | –
4 | CN1CCN(C(=O)c2nc3c(C(F)(F)F)cc(-c4ccoc4)cn3c2Cl)CC1=O | 4.74 | 5.92 | 4.44 | > 500 | – | –
5 | [3H]CC([3H])(C)c1cc(C(F)(F)F)c2nc(C(=O)N3CCC(N4CCOC4=O)CC3)c(Cl)n2c1 (configuration not stated) | – | 7.52 | – | – | – | –

Further lines, results first:

Row | pEC50 [1] | pIC50 [2] | pEC50 [3] | solubility [4] [µM] | Drug metabolism [5] | Drug metabolism [6] | Compound
6 | 6.59 | 6.77 | 7.05 | > 500 | – | – | O=C(c1nc2c(C(F)(F)F)cc(-c3ccoc3)cn2c1Cl)N1CCC(N2CCCC2=O)CC1
7 | 9.05 | 7.37 | 8.01 | > 500 | – | – | O=C(c1nc2c(C(F)(F)F)cc(-c3ccoc3)cn2c1Cl)N1CCN([C@H]2CC[C@H](O)CC2)C(=O)C1
8 | 6.35 | 7.70 | 5.80 | – | – | – | O=C(c1nc2c(C(F)(F)F)cc(-c3ccoc3)cn2c1Cl)N1CCN(c2ccccc2)CC1
9 | 7.96 | 8.25 | 8.46 | > 500 | Active | Active | O=C(c1nc2c(C(F)(F)F)cc(-c3ccoc3)cn2c1Cl)N1CCN(C2CCCCC2)C(=O)C1
10 | < 4.30 | < 4.30 | < 4.30 | > 500 | – | – | O=C(c1nc2c(C(F)(F)F)cc(-c3ccoc3)cn2c1Cl)N1CCC(N2CCCC2)CC1
